Consider 13 molecules from patent US10316038B2, “Pyrrolopyrimidine ITK inhibitors for treating inflammation and cancer” (ACLARIS THERAPEUTICS, INC., priority 2017, dated 2019).

Like-named read-outs stand apart in the source and are kept apart here.

The target of assay [1] is T1, ITK (Homo sapiens, UniProt Q08881).
T1 sequence (Q08881 1-620): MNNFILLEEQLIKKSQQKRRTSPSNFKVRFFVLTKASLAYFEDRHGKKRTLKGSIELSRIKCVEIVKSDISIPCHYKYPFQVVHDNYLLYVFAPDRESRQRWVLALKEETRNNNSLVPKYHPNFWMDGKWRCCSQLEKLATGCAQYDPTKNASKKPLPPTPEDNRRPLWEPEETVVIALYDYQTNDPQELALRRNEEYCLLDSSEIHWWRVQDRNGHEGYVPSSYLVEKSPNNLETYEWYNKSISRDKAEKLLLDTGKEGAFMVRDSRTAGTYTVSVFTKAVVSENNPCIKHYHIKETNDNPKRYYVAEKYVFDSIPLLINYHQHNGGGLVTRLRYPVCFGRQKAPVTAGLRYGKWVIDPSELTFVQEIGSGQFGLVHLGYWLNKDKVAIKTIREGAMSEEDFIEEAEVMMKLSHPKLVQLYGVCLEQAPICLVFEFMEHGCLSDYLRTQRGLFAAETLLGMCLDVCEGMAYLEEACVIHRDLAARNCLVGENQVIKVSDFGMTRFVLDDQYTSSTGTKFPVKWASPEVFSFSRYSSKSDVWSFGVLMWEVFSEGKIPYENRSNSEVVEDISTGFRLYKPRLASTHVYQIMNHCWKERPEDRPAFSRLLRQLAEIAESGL
In words: ITK inhibitor binding potency (LanthaScreen competitive binding assay). The conditions noted are these: TR-FRET competitive binding, 10 nM ITK, 50 nM kinase tracer-236; pre-incubation condition not given; read-out: ITK Inhibition IC50. The method in brief:
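TR-FRET tracer displacement using 10 nM ITK, 2 nM Eu-anti-GST antibody, 50 nM kinase tracer-236 in 20 mM HEPES pH 7.5, 10 mM MgCl2, 0.01% BSA, 0.0005% Tween-20, 2% DMSO. Run with or without 2 h compound–ITK pre-incubation before tracer; 11-point dose-response 20 uM–0.34 nM, IC50 from 4-parameter fit of emission ratio.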

Assay [2] relates to ITK phosphorylation of its substrate, PLCγ1, at Y783. Description: ITK target modulation assay (phospho-Y783 PLCγ1 immunoblot in Jurkat T cells). The conditions noted are these: 2 hours compound, CD3/CD28 Dynabeads stimulation 100 sec, anti-phospho-Y783 PLCγ1 immunoblot, read-out: PLC-γ Inhibition IC50. It is filed as cell-based. In short, it runs like this: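 Human Jurkat T cells (4 million per tube) were pretreated with compound for 2 hours at 37° C. They were then stimulated with CD3/CD28 Dynabeads (1 bead per cell) for 100 sec and lysed. Lysates were resolved by SDS-PAGE and immunoblotted for phospho-PLCγ1, with HRP secondary antibody and ECL detection.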

Consider `C=CC(=O)Nc1cc(-c2cnc3[nH]cc(-c4cccc(C)c4)c3c2)cc(C(F)(F)F)c1` [Example 59, N-(3-(3-(m-tolyl)-1H-pyrrolo[2,3-b]-pyridin-5-yl)-5-(trifluoromethyl)-phenyl)acrylamide], for which the IC50 was ≤ 1000 nM in assay [1] and > 5000 nM in assay [2] (Homo sapiens, Jurkat, 2 h).

For `CN(C)C/C=C/C(=O)Nc1cncc(-c2cnc3[nH]cc(-c4ccnc(C#N)c4)c3c2)c1` [Example 61, (E)-N-(5-(3-(2-cyanopyridin-4-yl)-1H-pyrrolo-[2,3-b]pyridin-5-yl)pyridin-3-yl)-4-(dimethyl-amino)but-2-enamide], the figures for the IC50 in assay [1] and in assay [2] (Human Jurkat T cells) were ≤ 100 nM and 1000 to 5000 nM, respectively.

Consider `C=CC(=O)Nc1cncc(-c2cnc3[nH]cc(-c4cccc(C(F)(F)F)c4)c3c2)c1` [Example 62, N-(5-(3-(3-(trifluoromethyl)-phenyl)-1H-pyrrolo[2,3-b]-pyridin-5-yl)-pyridin-3-yl)-acrylamide], for which the IC50 in assay [1] is ≤ 1000 nM; in assay [2] (Homo sapiens, Jurkat, 2 h), > 5000 nM.

As for `C=CC(=O)Nc1cc(-c2cnc3[nH]cc(-c4cccc(F)c4)c3c2)cc(C(F)(F)F)c1` [Example 63, N-(3-(3-(3-fluoro-phenyl)-1H-pyrrolo[2,3-b]-pyridin-5-yl)-5-(trifluoro-methyl)phenyl)-acrylamide], the IC50 in assay [1] is ≤ 1000 nM; in assay [2] (Homo sapiens, Jurkat, 2 h), 1000 to 5000 nM.

For the molecule `COc1cc(-c2cnc3[nH]cc(-c4cccc(C#N)c4)c3c2)cc(N(C)C(=O)/C=C/CN(C)C)c1` [Example 64], the IC50 in assay [1] was ≤ 100 nM; in assay [2] (Homo sapiens, Jurkat, 2 h), ≤ 1000 nM.

As to `C=CC(=O)N(C)c1cc(OC)cc(-c2cnc3[nH]cc(-c4cccc(C#N)c4)c3c2)c1` [Example 65, N-(3-(3-(3-cyano-phenyl)-1H-pyrrolo[2,3-b]-pyridin-5-yl)-5-methoxyphenyl)-N-methylacryl-amide], the IC50 is ≤ 100 nM in assay [1] and ≤ 1000 nM in assay [2] (Homo sapiens, Jurkat, 2 h).

Turning to `C=CC(=O)N(C)c1cncc(-c2cnc3[nH]cc(-c4cccc(C#N)c4)c3c2)c1` [Example 66, N-(5-(3-(3-cyano-phenyl)-1H-pyrrolo[2,3-b]-pyridin-5-yl)-pyridin-3-yl)-N-methylacrylamide], the half-maximal inhibitory concentration (IC50) is ≤ 100 nM in assay [1] and ≤ 1000 nM in assay [2] (Homo sapiens, Jurkat, 2 h).

Turning to `C=CC(=O)Nc1cc(-c2cnc3[nH]cc(-c4cncnc4)c3c2)cc(C(F)(F)F)c1` [Example 67, N-(3-(3-(pyrimidin-5-yl)-1H-pyrrolo-[2,3-b]pyridin-5-yl)-5-(trifluoro-methyl)phenyl)-acrylamide], the IC50 was ≤ 100 nM in assay [1] and ≤ 1000 nM in assay [2] (Homo sapiens, Jurkat, 2 h).

On to `C=CC(=O)Nc1cc(-c2cnc3[nH]cc(-c4cnc(OC)nc4)c3c2)cc(C(F)(F)F)c1` [Example 68, N-(3-(3-(2-methoxy-pyrimidin-5-yl)-1H-pyrrolo[2,3-b]pyridin-5-yl)-5-(trifluoromethyl)-phenyl)acrylamide], for which the IC50 in assay [1] was ≤ 100 nM; in assay [2] (Homo sapiens, Jurkat, 2 h), ≤ 1000 nM.

Consider `C=CC(=O)Nc1cc(F)cc(-c2cnc3[nH]cc(-c4cccc(C#N)c4)c3c2)c1` [Example 69, N-(3-(3-(3-cyano-phenyl)-1H-pyrrolo[2,3-b]-pyridin-5-yl)-5-fluorophenyl)-acrylamide], for which the IC50 in assay [1] is ≤ 100 nM; in assay [2] (Homo sapiens, Jurkat, 2 h), > 5000 nM.

For `CN(C)C/C=C/C(=O)Nc1cc(-c2cnc3c(c2)c(-c2cccc(C#N)c2)cn3C)cc(C(F)(F)F)c1` [Example 70], the IC50 was > 1000 nM in assay [1] and > 5000 nM in assay [2] (Homo sapiens, Jurkat, 2 h).

For the molecule `COc1cc(-c2c[nH]c3ncc(-c4cncc(NC(=O)/C=C/CN(C)C)c4)cc23)ccn1` [Example 71, (E)-4-(dimethyl-amino)-N-(5-(3-(2-methoxypyridin-4-yl)-1H-pyrrolo[2,3-b]pyridin-5-yl)-pyridin-3-yl)but-2-enamide], the IC50 was ≤ 100 nM in assay [1] and ≤ 1000 nM in assay [2] (Homo sapiens, Jurkat, 2 h).

As to `CN(C)C/C=C/C(=O)N(C)c1cncc(-c2cnc3[nH]cc(-c4cccc(C#N)c4)c3c2)c1` [Example 72, (E)-N-(5-(3-(3-cyanophenyl)-1H-pyrrolo[2,3-b]-pyridin-5-yl)-pyridin-3-yl)-4-(dimethylamino)-N-methylbut-2-enamide], the IC50 in assay [1] was ≤ 100 nM; in assay [2] (Homo sapiens, Jurkat, 2 h), 1000 to 5000 nM.
